Converted amounts (≈) assume the structure as drawn. Read-outs that look alike come from different tables or passages of the source.
Legend:
[1] = Competitive suspension experiments; assay type: physicochemical; conditions: for XRPD result (room temperature): 25° C.
Method: Test Example 1: Competitive Suspension Experiments
Equal amounts (6 mg) of the crystalline form I sample of the compound of formula B obtained in Example 1, the crystalline form II sample of the compound of formula B obtained in Example 22, and the crystalline form III sample of the compound of formula B obtained in Example 33 were mixed. The resulting mixture was separately stirred at room temperature (25° C.) and at a high temperature (50° C.) for 24 h, 2 days, and 7 days in the following solvents, and the remaining solids were subjected to the XRPD test.

Solubility test = assay type: physicochemical; conditions: 200 rpm; for FeSSIF Solubility: FeSSIF (pH about 5.00); for solubility at 24 h: 37 °C, thermodynamic from solid
Method: Test Example 2: Solubility Test
The crystalline form I sample (5 mg) obtained in Example 1 and the crystalline form II sample (5 mg) obtained in Example 22 were added to a sample bottle, and 1 mL of SGF (simulated gastric fluid), FaSSIF (fasted state simulated intestinal fluid), FeSSIF (fed state simulated intestinal fluid), and water were separately added. The resulting suspensions were shaken at 37° C. at a rotation speed of 200 rpm for 24 h and filtered. The resulting filtrates were subjected to the concentration test, and the resulting solids were subjected to XRPD characterization.

Solid stability study = assay type: physicochemical; conditions: 7 days
Method: Test Example 3: Solid Stability Study
The crystalline form I (5 mg) obtained in Example 1 and the crystalline form II (5 mg) obtained in Example 22 were weighed into sample bottles; the samples were subjected to solid-state stability studies after being placed under the conditions of 60° C. (closed) and 40° C./75% RH (open); and sampling was performed on day 7 for XRPD characterization.

[2] = Dynamic vapor sorption/desorption (DVS) analysis; assay type: physicochemical
Method: 2. Dynamic Vapor Sorption/Desorption (DVS) Analysis
Instrument: DVS Intrinsic plus (SMS, UK).
Method: a sample is placed in a tared sample basket, the weight of the sample is automatically measured, and the sample is dried at 40° C./0% RH until dm/dt is less than 0.002% and then cooled to 25° C.

Grinding stability study = assay type: physicochemical
[3] = Pharmacokinetic study in rats; assay type: in vivo, SD rats; conditions: rat
Text: Test Example 6: Pharmacokinetic Study of Compound of Formula B in Rats
Assay drug: the compound of formula B obtained in Preparation Example 1.
Instrument: LC-MS/MS-13 (TQ5500, Triple quad), with the operation software of Xcalibur2.0.7 (Thermo Fisher Scientific, USA); LC-10ADvp liquid chromatography system (Shimadzu, Japan); Shimadzu LC-20AD liquid chromatography pump; Shimadzu CBM-20A system controller; Shimadzu CTO-20A column oven; and SIL-20AC autosampler (Shimadzu, Japan). Chromatographic column: Agilent Zorbax SB-CN 3.5 u 100×2.1 mm; column temperature: 40° C.; mobile phase A: 0.1% aqueous formic acid solution; mobile phase B: a 0.1% solution of formic acid in acetonitrile; flow rate: 0.60 mL/min. The gradient elution was performed as follows: from 0 to 0.5 min, the mobile phase B was increased from 1% to 90%; from 0.5 to 1.2 min, 90% of the mobile phase B was maintained; starting from 1.21 min, the mobile phase B was changed back to 1%; and elution was stopped at 1.60 min.
Animals: 6 male SD rats were supplied by Shanghai Sippe-Bk Lab Animal Co., Ltd. The body weight range was 180-220 g. After purchase, the rats were bred in the laboratory of the experimental animal center for 2 days for later use. The rats were fasted 10-14 h before administration and 4 h after administration, and given ad libitum access to water during the assay. The rats were randomly divided into two groups, with 3 rats in each group. One group was intravenously injected, and the other group was intragastrically administered.
Preparation of intragastric administration solution: the compound of formula B (4.85 mg) was precisely weighed out, and a mixed aqueous solution (9.70 mL) containing 0.5% methylcellulose and 0.4% Tween-80 was added, followed by sonication at room temperature to prepare a 0.5 mg/mL suspension. Preparation of intravenous injection solution: the compound of formula B (2.79 mg) was precisely weighed out, and DMSO (21 μL), PEG200 (2.79 mL), and normal saline (4.164 mL) were added to prepare a 0.4 mg/mL solution.
Blood was collected in the intragastric administration group about 0.25 h before administration and 0.25 h, 0.5 h, 1 h, 1.5 h, 2 h, 4 h, 6 h, 8 h, 12 h, and 24 h after administration. Blood was collected in the intravenous administration group about 0.25 h before administration and 0.083 h, 0.25 h, 0.5 h, 0.75 h, 1 h, 2 h, 4 h, 8 h, 12 h, and 24 h after administration. The blood was collected from the jugular vein or other venipuncture at 0.25 mL/time point and anticoagulated with EDTA-K2 or EDTA-K3. The collected blood was placed on the ice. After the blood samples were collected, plasma was separated by centrifugation (centrifugation conditions: 6800 g/min, 6 min, 2-8° C.). The collected plasma samples were stored in a refrigerator at −80° C. for testing prior to analysis.
The compound of the formula B was accurately weighed out and formulated into different concentrations, and quantitative analysis was performed on a mass spectrometer to establish a standard curve. The concentration of the compound of formula B in the plasma described above was then measured to obtain the concentrations of the compound of formula B at different time points. All the measured data were collected and processed by relevant software, and pharmacokinetic parameters (mainly including kinetic parameters Tmax, T1/2, Cmax, AUC0-t, etc.) were calculated by adopting a statistical moment method. […]

[4] = Dichloromethane/acetonitrile (V:V = 1:2), 0.5 mL, 24 h
[5] = Dichloromethane/acetonitrile (V:V = 1:2), 0.5 mL, 7 days
[6] = Dichloromethane/ethanol (V:V = 1:4), 0.5 mL, 24 h
[7] = Dichloromethane/ethanol (V:V = 1:4), 0.5 mL, 7 days
[8] = N,N-Dimethylformamide, 0.5 mL, 24 h
[9] = N,N-Dimethylformamide, 0.5 mL, 7 days
[10] = Water/acetone (V:V = 1:1), 1 mL, 2 days
[11] = Water/acetone (V:V = 2:8), 1 mL, 2 days
[12] = Water/acetone (V:V = 5:95), 1 mL, 2 days
[13] = male, SD, plasma, iv, intravenously injected, 2.0 mg/kg
[14] = male, SD, plasma, po, intragastrically administered, 5 mg/kg

N#Cc1cnc(NC(=O)N2CCCc3cc(CN4CCN5CCC[C@H]5C4=O)c(C=O)nc32)cc1NC1CC1
XRPD result (room temperature) [1, 4]: form I + II | XRPD result (50° C.) [1, 4]: form I + II | XRPD result (room temperature) [1, 5]: form I | XRPD result (50° C.) [1, 5]: form I | XRPD result (room temperature) [1, 6]: form I + II | XRPD result (50° C.) [1, 6]: form I + II | XRPD result (room temperature) [1, 7]: form I | XRPD result (50° C.) [1, 7]: form I | XRPD result (room temperature) [1, 8]: form I + II | XRPD result (50° C.) [1, 8]: form I + II | XRPD result (room temperature) [1, 9]: form I | XRPD result (50° C.) [1, 9]: form I | XRPD result (room temperature) ([1]; Water, 0.5 mL, 7 days): form I + II | XRPD result (50° C.) ([1]; Water, 0.5 mL, 7 days): form I + II | XRPD result (room temperature) [1, 10]: form I + II | XRPD result (50° C.) [1, 10]: form I | XRPD result (room temperature) [1, 11]: form I + II | XRPD result (50° C.) [1, 11]: form I | XRPD result (room temperature) [1, 12]: form I + II | XRPD result (50° C.) [1, 12]: form I

N#Cc1cnc(NC(=O)N2CCCc3cc(CN4CCN5CCC[C@H]5C4=O)c(C=O)nc32)cc1NC1CC1 [Crystalline form II]
FaSSIF Solubility (Solubility test; FaSSIF (pH about 6.50), 37° C., 24 h): 19 µg/mL | FeSSIF Solubility (Solubility test; 37° C., 24 h): 5.5 µg/mL | SGF Solubility (Solubility test; SGF (pH about 1.20), 37° C., 24 h): >5000 µg/mL | Water Solubility (Solubility test; 37° C., 24 h): 1.5 µg/mL | XRPD result at 40° C./75% RH (open) (Solid stability study): Unchanged | XRPD result at 60° C. (closed) (Solid stability study): Unchanged

N#Cc1cnc(NC(=O)N2CCCc3cc(CN4CCN5CCC[C@H]5C4=O)c(C=O)nc32)cc1NC1CC1 [Crystalline form I]
hygroscopic weight gain ([2]; DVS, 0-90% RH, 25° C.): about 0.24% | hygroscopicity ([2]; DVS, 0-90% RH, 25° C.): almost non-hygroscopic | crystalline form of the sample after the DVS test ([2]; XRPD after DVS): not changed | solubility at 24 h (Solubility test; FaSSIF (fasted state simulated intestinal fluid), pH 6.5, fassif, FaSSIF (pH about 6.50), read-out: FaSSIF Solubility): 26 µg/mL (≈ 50.5 µM) | FeSSIF Solubility (Solubility test; 37° C., 24 h): 14 µg/mL | solubility at 24 h (Solubility test; SGF (simulated gastric fluid), pH 1.2, simulated gastric fluid, SGF (pH about 1.20), read-out: SGF Solubility): > 5000 µg/mL | Water Solubility (Solubility test; 37° C., 24 h): 3.1 µg/mL | XRPD result at 40° C./75% RH (open) (Solid stability study): Unchanged | XRPD result at 60° C. (closed) (Solid stability study): Unchanged | Grinding stability result (crystalline form, XRPD) (Grinding stability study; Solid grinding, 2 min): unchanged | Grinding stability result (crystalline form, XRPD) (Grinding stability study; Solid grinding, 5 min): unchanged, but the crystallinity | Grinding stability result (crystallinity, XRPD) (Grinding stability study; Solid grinding, 5 min): became worse | Grinding stability result (crystalline form, XRPD) (Grinding stability study; Solvent grinding, Acetone): unchanged | Grinding stability result (crystalline form, XRPD) (Grinding stability study; Solvent grinding, Acetonitrile): unchanged | Grinding stability result (crystalline form, XRPD) (Grinding stability study; Solvent grinding, Dichloromethane): unchanged | Grinding stability result (crystalline form, XRPD) (Grinding stability study; Solvent grinding, Ethanol): unchanged | Grinding stability result (crystalline form, XRPD) (Grinding stability study; Solvent grinding, Methanol): unchanged

N#Cc1cnc(NC(=O)N2CCCc3cc(CN4CCN5CCC[C@@H]5C4=O)c(C=O)nc32)cc1NC1CC1 [compound of formula C]
AUC(0-t) [3, 13]: 2550 ng·h/mL | clearance [3, 13]: 13.4 mL/min/kg | half-life [3, 13]: 1.23 h | bioavailability ([3]; male, SD, plasma, oral, intragastric 5 mg/kg vs intravenous 2.0 mg/kg, read-out: absolute bioavailability): 35.3% | AUC(0-t) [3, 14]: 2250 ng·h/mL | Cmax [3, 14]: 597 ng/mL | half-life [3, 14]: 1.24 h | Tmax ([3]; male, SD, plasma, po, intragastrically administered, 5 mg/kg, read-out: time at which the plasma concentration reached the peak value (Tmax)): 2.5 h | volume distribution ([3]; intravenously injected, 2.0 mg/kg): 0.973 L/kg

— patent US20250282797A1, “CRYSTALLINE FORM OF FGFR4 INHIBITOR AND USE THEREOF” (CSPC ZHONGQI PHARMACEUTICAL TECHNOLOGY (SHIJIAZHUANG) CO., …, priority 2022, published 2025)
